Like-named read-outs stand apart in the source and are kept apart here.
Test system: mouse immortalized TT-D6 Scx-luciferase (ScxL) cell line; transcriptional activation of Scleraxis (Scx) gene
Assay: SCX-LUC in vitro assay (scleraxis promoter luciferase reporter)
Format: cell-based
[1] = Mus musculus, 96 h, Examples table, TT-D6 Scx-luciferase cells, 1 ng/ml TGFβ1, four days, read-out: Scx-Luc (EC50 μM)

Compound | EC50 [1] [µM] | also measured
Nc1n[nH]c2ccc(-c3ccc(S(=O)(=O)NC4CCC(O)(C(F)(F)F)CC4)cc3Cl)nc12 [4-(3-amino-1H-pyrazolo[4,3-b]pyridin-5-yl)-3-chloro-N-((1R,4R)-4-hydroxy-4-(trifluoromethyl)cyclohexyl)benzenesulfonamide] |  | EC50 (further compounds not numbered as examples, read-out: EC50 in the Scx-Luc assay): > 10 µM
Nc1n[nH]c2ccc(-c3ccc(S(=O)(=O)N4CCC[C@H]4CO)cc3Cl)nc12 [(S)-(1-((4-(3-amino-1H-pyrazolo[4,3-b]pyridin-5-yl)-3-chlorophenyl)sulfonyl)pyrrolidin-2-yl)methanol] |  | EC50 (Mus musculus, further compounds not numbered as examples, read-out: EC50 in the Scx-Luc assay): > 10 µM
Nc1n[nH]c2ccc(-c3ccc(S(=O)(=O)NC4CC(F)(F)C4)cc3Cl)nc12 [Example 4, 4-(3-amino-1H-pyrazolo[4,3-b]pyridin-5-yl)-3-chloro-N-(3,3-difluorocyclobutyl)benzenesulfonamide] | 0.444 | 
COc1ccc(S(=O)(=O)Nc2ccc(-c3ccc4[nH]nc(N)c4n3)c(Cl)c2)cc1 [Example 5, N-(4-(3-amino-1H-pyrazolo[4,3-b]pyridin-5-yl)-3-chlorophenyl)-4-methoxybenzenesulfonamide] | 0.909 | 
Nc1n[nH]c2ccc(-c3ccc(NS(=O)(=O)c4ccc(F)cc4)cc3Cl)nc12 [Example 6, N-(4-(3-amino-1H-pyrazolo[4,3-b]pyridin-5-yl)-3-chlorophenyl)-4-fluorobenzenesulfonamide] | 0.58 | 
Nc1n[nH]c2ccc(-c3ccc(NS(=O)(=O)c4ccc(F)c(F)c4)cc3Cl)nc12 [Example 10, N-(4-(3-amino-1H-pyrazolo[4,3-b]pyridin-5-yl)-3-chlorophenyl)-3,4-difluorobenzenesulfonamide] | 0.64 | 
Nc1n[nH]c2ccc(-c3ccc(NS(=O)(=O)c4ccc(Cl)c(F)c4)cc3Cl)nc12 [Example 13, N-(4-(3-amino-1H-pyrazolo[4,3-b]pyridin-5-yl)-3-chlorophenyl)-4-chloro-3-fluorobenzenesulfonamide] | 1.34 | 
Nc1n[nH]c2ccc(-c3ccc(NS(=O)(=O)[C@H]4CCCC[C@H]4O)cc3Cl)nc12 [Example 14, (1S,2R)—N-(4-(3-amino-1H-pyrazolo[4,3-b]pyridin-5-yl)-3-chlorophenyl)-2-hydroxycyclohexane-1-sulfonamide] | 1.12 | 
Nc1n[nH]c2ccc(-c3ccc(NS(=O)(=O)C4CCCCC4)cc3Cl)nc12 [Example 15, N-(4-(3-amino-1H-pyrazolo[4,3-b]pyridin-5-yl)-3-chlorophenyl)cyclohexanesulfonamide] | 0.874 | 
Nc1n[nH]c2ccc(-c3ccc(NS(=O)(=O)C4CCCCC4O)cc3Cl)nc12 (stereo not shown) [Example 17, N-(4-(3-amino-1H-pyrazolo[4,3-b]pyridin-5-yl)-3-chlorophenyl)-2-hydroxycyclohexane-1-sulfonamide] | 1.84 | 
Cc1cc(S(=O)(=O)N[C@@H]2CC[C@H](O)C2)ccc1-c1ccc2[nH]nc(N)c2n1 [Example 19, 4-(3-amino-1H-pyrazolo[4,3-b]pyridin-5-yl)-N-((1R,3S)-3-hydroxycyclopentyl)-3-methylbenzenesulfonamide] | 1.7 | 
Cc1cc(S(=O)(=O)N[C@@H]2CCC[C@@H]2O)ccc1-c1ccc2[nH]nc(N)c2n1 [Example 20, 4-(3-amino-1H-pyrazolo[4,3-b]pyridin-5-yl)-N-((1R,2S)-2-hydroxycyclopentyl)-3-methylbenzenesulfonamide] | 0.797 | 
N#Cc1cccc(S(=O)(=O)Nc2ccc(-c3ccc4[nH]nc(N)c4n3)c(Cl)c2)c1 [Example 22, N-(4-(3-amino-1H-pyrazolo[4,3-b]pyridin-5-yl)-3-chlorophenyl)-3-cyanobenzenesulfonamide] | 0.035 | 
Nc1n[nH]c2ccc(-c3ccc(S(=O)(=O)N[C@@H]4CC[C@H](O)C4)cc3Cl)nc12 [Example 23, 4-(3-amino-1H-pyrazolo[4,3-b]pyridin-5-yl)-3-chloro-N-((1R,3S)-3-hydroxycyclopentyl)benzenesulfonamide] | 2.28 | 
CC1(C)CCC(NS(=O)(=O)c2ccc(-c3ccc4[nH]nc(N)c4n3)c(Cl)c2)CC1 [Example 24, 4-(3-amino-1H-pyrazolo[4,3-b]pyridin-5-yl)-3-chloro-N-(4,4-dimethylcyclohexyl)benzenesulfonamide] | 1.59 | 
Cc1ccc(S(=O)(=O)Nc2ccc(-c3ccc4[nH]nc(N)c4n3)c(Cl)c2)cc1 [Example 25, N-(4-(3-amino-1H-pyrazolo[4,3-b]pyridin-5-yl)-3-chlorophenyl)-4-methylbenzenesulfonamide] | 0.611 | 
Cc1cc(S(=O)(=O)NC2(CO)CCCC2)ccc1-c1ccc2[nH]nc(N)c2n1 [Example 26, 4-(3-amino-1H-pyrazolo[4,3-b]pyridin-5-yl)-N-(1-(hydroxymethyl)cyclopentyl)-3-methylbenzenesulfonamide] | 0.811 | 
Nc1n[nH]c2ccc(-c3ccc(NS(=O)(=O)c4ccc(F)c(Cl)c4)cc3Cl)nc12 [Example 27, N-(4-(3-amino-1H-pyrazolo[4,3-b]pyridin-5-yl)-3-chlorophenyl)-3-chloro-4-fluorobenzenesulfonamide] | 1.08 | 
Nc1n[nH]c2ccc(-c3ccc(NS(=O)(=O)c4cccc(Cl)c4)cc3Cl)nc12 [Example 28, N-(4-(3-amino-1H-pyrazolo[4,3-b]pyridin-5-yl)-3-chlorophenyl)-3-chlorobenzenesulfonamide] | 2.5 | 

Compound | EC50 [1] [µM] | also measured
Nc1n[nH]c2ccc(-c3ccc(S(=O)(=O)N[C@@H]4CCC[C@H]4O)cc3Cl)nc12 [Example 29, 4-(3-amino-1H-pyrazolo[4,3-b]pyridin-5-yl)-3-chloro-N-((1R,2R)-2-hydroxycyclopentyl)benzenesulfonamide] | 1.91 | 
Nc1n[nH]c2ccc(-c3ccc(S(=O)(=O)NC4(CO)CCCC4)cc3Cl)nc12 [Example 30, 4-(3-amino-1H-pyrazolo[4,3-b]pyridin-5-yl)-3-chloro-N-(1-(hydroxymethyl)cyclopentyl)benzenesulfonamide] | 2.07 | 
Cc1ccc(O)c(S(=O)(=O)Nc2ccc(-c3ccc4[nH]nc(N)c4n3)c(Cl)c2)c1 [Example 32, N-(4-(3-amino-1H-pyrazolo[4,3-b]pyridin-5-yl)-3-chlorophenyl)-2-hydroxy-5-methylbenzenesulfonamide] | 1.94 | 
Cc1cc(NS(=O)(=O)c2cccc(F)c2)ccc1-c1ccc2[nH]nc(N)c2n1 [Example 33, N-(4-(3-amino-1H-pyrazolo[4,3-b]pyridin-5-yl)-3-methylphenyl)-3-fluorobenzenesulfonamide] | 1.02 | 
Cc1cc(S(=O)(=O)N2CC(F)(F)CC2C(N)=O)ccc1-c1ccc2[nH]nc(N)c2n1 (stereo not shown) [Example 34, 1-((4-(3-amino-1H-pyrazolo[4,3-b]pyridin-5-yl)-3-methylphenyl)sulfonyl)-4,4-difluoropyrrolidine-2-carboxamide] | 5.02 | 
Nc1n[nH]c2ccc(-c3ccc(S(=O)(=O)N[C@H]4CCC[C@H]4O)cc3Cl)nc12 [Example 35, 4-(3-amino-1H-pyrazolo[4,3-b]pyridin-5-yl)-3-chloro-N-((1S,2R)-2-hydroxycyclopentyl)benzenesulfonamide] | 2.73 | 
CC1CCC(NS(=O)(=O)c2ccc(-c3ccc4[nH]nc(N)c4n3)c(Cl)c2)CC1 (stereo not shown) [Example 36, 4-(3-amino-1H-pyrazolo[4,3-b]pyridin-5-yl)-3-chloro-N-(4-methylcyclohexyl)benzenesulfonamide] | 0.414 | 
Cc1cc(S(=O)(=O)N2CC(F)(F)C[C@H]2CO)ccc1-c1ccc2[nH]nc(N)c2n1 [Example 37, (S)-(1-((4-(3-amino-1H-pyrazolo[4,3-b]pyridin-5-yl)-3-methylphenyl)sulfonyl)-4,4-difluoropyrrolidin-2-yl)methanol] | 0.593 | 
Cc1cc(S(=O)(=O)NC2CCCCC2)ccc1-c1ccc2[nH]nc(N)c2n1 [Example 39, 4-(3-amino-1H-pyrazolo[4,3-b]pyridin-5-yl)-N-cyclohexyl-3-methylbenzenesulfonamide] | 0.473 | 
Nc1n[nH]c2ccc(-c3ccc(S(=O)(=O)Nc4cccc(F)c4)cc3Cl)nc12 [Example 40] | 0.416 | 
Nc1n[nH]c2ccc(-c3ccc(NS(=O)(=O)c4cccc(F)c4)cc3Cl)nc12 [Example 41, N-(4-(3-amino-1H-pyrazolo[4,3-b]pyridin-5-yl)-3-chlorophenyl)-3-fluorobenzenesulfonamide] | 2.25 | 
Cc1cc(NS(=O)(=O)c2cccc(Cl)c2)ccc1-c1ccc2[nH]nc(N)c2n1 [Example 42, N-(4-(3-amino-1H-pyrazolo[4,3-b]pyridin-5-yl)-3-methylphenyl)-3-chlorobenzenesulfonamide] | 2 | 
Nc1n[nH]c2ccc(-c3ccc(NS(=O)(=O)c4ccc(Cl)c(Cl)c4)cc3Cl)nc12 [Example 43, N-(4-(3-amino-1H-pyrazolo[4,3-b]pyridin-5-yl)-3-chlorophenyl)-3,4-dichlorobenzenesulfonamide] | 3.31 | 
Nc1n[nH]c2ccc(-c3ccc(S(=O)(=O)NC4CCCC(O)C4)cc3Cl)nc12 (stereo not shown) [Example 44, 4-(3-amino-1H-pyrazolo[4,3-b]pyridin-5-yl)-3-chloro-N-(3-hydroxycyclohexyl)benzenesulfonamide] | 4.12 | 
Nc1n[nH]c2ccc(-c3ccc(S(=O)(=O)N[C@H]4CC[C@H](O)CC4)cc3Cl)nc12 [Example 45, 4-(3-amino-1H-pyrazolo[4,3-b]pyridin-5-yl)-3-chloro-N-((1r,4r)-4-hydroxycyclohexyl)benzenesulfonamide] | 4.73 | 
Cc1cc(S(=O)(=O)N[C@H]2C[C@@H](CO)C2)ccc1-c1ccc2[nH]nc(N)c2n1 [Example 47, 4-(3-amino-1H-pyrazolo[4,3-b]pyridin-5-yl)-N-((1s,3s)-3-(hydroxymethyl)cyclobutyl)-3-methylbenzenesulfonamide] | 5.34 | 
Nc1n[nH]c2ccc(-c3ccc(S(=O)(=O)N[C@H]4CC[C@@H](O)CC4)cc3Cl)nc12 [Example 48, 4-(3-amino-1H-pyrazolo[4,3-b]pyridin-5-yl)-3-chloro-N-((1s,4s)-4-hydroxycyclohexyl)benzenesulfonamide] | 2.02 | 
Nc1n[nH]c2ccc(-c3ccc(S(=O)(=O)Nc4ccccc4)cc3F)nc12 [Example 49, 4-(3-amino-1H-pyrazolo[4,3-b]pyridin-5-yl)-3-fluoro-N-phenylbenzenesulfonamide] | 0.87 | 
